pEC50: −log10 of the molar value.

This assay deals with T1, human VDR (Homo sapiens, UniProt P11473).
T1 sequence (P11473 1-427): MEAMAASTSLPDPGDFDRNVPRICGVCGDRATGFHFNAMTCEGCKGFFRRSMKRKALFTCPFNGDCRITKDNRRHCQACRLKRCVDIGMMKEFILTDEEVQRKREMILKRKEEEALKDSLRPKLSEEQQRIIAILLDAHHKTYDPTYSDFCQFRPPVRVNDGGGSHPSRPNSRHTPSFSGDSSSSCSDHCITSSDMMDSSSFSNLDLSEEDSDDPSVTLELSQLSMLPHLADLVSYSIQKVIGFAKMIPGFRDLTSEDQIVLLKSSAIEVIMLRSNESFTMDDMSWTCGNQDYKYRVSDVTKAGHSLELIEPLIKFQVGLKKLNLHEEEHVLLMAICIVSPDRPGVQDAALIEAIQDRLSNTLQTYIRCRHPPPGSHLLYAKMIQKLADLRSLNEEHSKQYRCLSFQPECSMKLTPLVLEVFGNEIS
T1 sequence (P19793 1-462 partner): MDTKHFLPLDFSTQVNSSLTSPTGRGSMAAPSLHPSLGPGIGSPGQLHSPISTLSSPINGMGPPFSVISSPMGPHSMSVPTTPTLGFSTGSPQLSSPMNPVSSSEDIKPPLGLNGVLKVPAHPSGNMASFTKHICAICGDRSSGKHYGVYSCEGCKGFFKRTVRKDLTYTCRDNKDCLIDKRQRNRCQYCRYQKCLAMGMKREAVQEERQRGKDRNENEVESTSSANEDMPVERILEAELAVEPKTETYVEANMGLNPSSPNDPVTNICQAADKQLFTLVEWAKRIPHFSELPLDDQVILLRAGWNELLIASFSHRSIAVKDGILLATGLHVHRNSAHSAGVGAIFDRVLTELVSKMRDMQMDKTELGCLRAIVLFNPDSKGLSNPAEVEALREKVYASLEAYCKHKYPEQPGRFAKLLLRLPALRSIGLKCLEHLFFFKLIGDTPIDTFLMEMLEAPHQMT
Briefly: Evaluation of VDR transcription activity in human osteoblasts (HOS cells), luciferase reporter. As to conditions: Activity (EC50, VDR transcription activity), HOS cells transfected with human VDR, human RXRα and DR3 luciferase reporter; 21 hours. On the technique in general: Reporter assays use an easily measured gene product as a stand-in for the process of interest.
For `C[C@H](CN1CC(CC(F)F)C1)[C@H]1CC[C@H]2/C(=C/C=C3C[C@@H](O)C[C@H](O)C3)CCC[C@]12C` [Compound A021, (1R,3R)-5-(2-((1R,3aS,7aR,E)-1-((S)-1-(3-(2,2-difluoroethyl)azetidin-1-yl)propan-2-yl)-7a-methyloctahydro-4H-inden-4-ylidene)ethylidene)cyclohexane-1,3-diol], the pEC50 (commonly the negative decadic logarithm of the EC50, by convention in mol/L) was 6.00 to 7.00. As for `C=C1[C@H](O)CC(=C/C=C2\CCC[C@]3(C)[C@@H]([C@H](C)CCN4CC(O)(C(F)(F)F)C4)CC[C@@H]23)C[C@H]1O` [Compound A023, (1R,3R)-5-(2-((1R,3aS,7aR,E)-1-((R)-4-(3-hydroxy-3-(trifluoromethyl)azetidin-1-yl)butan-2-yl)-7a-methyloctahydro-4H-inden-4-ylidene)ethylidene)-2-methylenecyclohexane-1,3-diol], the figure is above 9.00. As for `C[C@H](CCN1CC(OC(F)F)C1)[C@H]1CC[C@H]2/C(=C/C=C3C[C@@H](O)C[C@H](O)C3)CCC[C@]12C` [Compound A025, (1R,3R)-5-(2-((1R,3aS,7aR,E)-1-((R)-4-(3-(difluoromethoxy)azetidin-1-yl)butan-2-yl)-7a-methyloctahydro-4H-inden-4-ylidene)ethylidene)cyclohexane-1,3-diol], the figure is 6.00 to 7.00. As for `COC1(C(F)(F)F)CN(CC[C@@H](C)[C@H]2CC[C@H]3/C(=C/C=C4C[C@@H](O)C[C@H](O)C4)CCC[C@]23C)C1` [Compound A027, (1R,3R)-5-(2-((1R,3aS,7aR,E)-1-((R)-4-(3-methoxy-3-(trifluoromethyl)azetidin-1-yl)butan-2-yl)-7a-methyloctahydro-4H-inden-4-ylidene)ethylidene)cyclohexane-1,3-diol], the figure is 8.00 to 9.00; as for `C[C@H](CCN1CC(OC(F)(F)F)C1)[C@H]1CC[C@H]2/C(=C/C=C3C[C@@H](O)C[C@H](O)C3)CCC[C@]12C` [Compound A028, (1R,3R)-5-(2-((1R,3aS,7aR,E)-7a-methyl-1-((R)-4-(3-(trifluoromethoxy)azetidin-1-yl)butan-2-yl)octahydro-4H-inden-4-ylidene)ethylidene)cyclohexane-1,3-diol], 6.00 to 7.00; as for `C=C1[C@H](O)CC(=C/C=C2\CCC[C@]3(C)[C@@H]([C@H](C)CCN4CC(OC(F)F)C4)CC[C@@H]23)C[C@H]1O` [Compound A030, (1R,3R)-5-(2-((1R,3aS,7aR,E)-1-((R)-4-(3-(difluoromethoxy)azetidin-1-yl)butan-2-yl)-7a-methyloctahydro-4H-inden-4-ylidene)ethylidene)-2-methylenecyclohexane-1,3-diol], 7.00 to 8.00. Regarding `C=C1[C@H](O)CC(=C/C=C2\CCC[C@]3(C)[C@@H]([C@H](C)CN4CC[C@@H](C)C4)CC[C@@H]23)C[C@H]1O` [Compound B003, (1R,3R)-5-(2-((1R,3aS,7aR,E)-7a-methyl-1-((S)-1-((R)-3-methylpyrrolidin-1-yl)propan-2-yl)octahydro-4H-inden-4-ylidene)ethylidene)-2-methylenecyclohexane-1,3-diol], the pEC50 was 8.00 to 9.00. As for `C=C1[C@H](O)CC(=C/C=C2\CCC[C@]3(C)[C@@H]([C@H](C)CN4CC[C@H](CC)C4)CC[C@@H]23)C[C@H]1O` [Compound B005, (1R,3R)-5-(2-((1R,3aS,7aR,E)-1-((S)-1-((S)-3-ethylpyrrolidin-1-yl)propan-2-yl)-7a-methyloctahydro-4H-inden-4-ylidene)ethylidene)-2-methylenecyclohexane-1,3-diol], the figure is 8.00 to 9.00; as for `CC[C@@H]1CCN(C[C@@H](C)[C@H]2CC[C@H]3/C(=C/C=C4C[C@@H](O)C[C@H](O)C4)CCC[C@]23C)C1` [Compound B008, (1R,3R)-5-(2-((1R,3aS,7aR,E)-1-((S)-1-((R)-3-ethylpyrrolidin-1-yl)propan-2-yl)-7a-methyloctahydro-4H-inden-4-ylidene)ethylidene)cyclohexane-1,3-diol], 7.00 to 8.00.

The record behind these values is US20230348376A1 (TEIJIN PHARMA LIMITED, priority 2020, published 2023).
